In patent publication US20060142247A1, “Tricyclic heterocycles” (priority 2004, published 2006) one finds IC50 data, which are given here for eleven compounds.

SMILES strings stand for the structures.

The target in test [1] is T1, Aurora A (Homo sapiens, UniProt O14965).
T1 construct: C-terminally Histidine4 (His4)-tagged Aurora A full-length protein; His4 (C)
T1 sequence (O14965 1-403): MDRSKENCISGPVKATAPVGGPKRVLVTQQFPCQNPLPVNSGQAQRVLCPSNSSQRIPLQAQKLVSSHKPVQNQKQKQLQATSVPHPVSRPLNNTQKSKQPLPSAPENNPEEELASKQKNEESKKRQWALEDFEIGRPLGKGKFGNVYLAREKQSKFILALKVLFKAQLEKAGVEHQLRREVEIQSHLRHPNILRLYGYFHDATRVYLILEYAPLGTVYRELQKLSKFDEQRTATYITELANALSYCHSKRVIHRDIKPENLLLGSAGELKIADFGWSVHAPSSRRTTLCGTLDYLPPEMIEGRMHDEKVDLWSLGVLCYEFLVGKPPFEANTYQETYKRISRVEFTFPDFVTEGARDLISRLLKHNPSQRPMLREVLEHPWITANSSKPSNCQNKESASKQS
Nature of the test: IC50 determination for inhibitors of Aurora A (96 MTP-ELISA). The test is classed as biochemical. As to conditions: His4-tagged full-length Aurora A 250 ng/ml, PKB-GSK2 200 nM, ATP 4 μM, 90 min room temperature, read-out: IC50 Aurora A kinase inhibition. The procedure:
Aurora A is a serine threonine kinase involved in spindle assembly and chromosome segregation. The assay is a typically ELISA-type assay where biotinylated substrate (PKB-GSK2) is phosphorylated. Phosphorylation is detected by peroxidase (POD) labelled polyclonal antibody (PAK<M-Ig>S-IgG-POD) and phosphopeptide monoclonal antibody (Mab) (MAK<P-GSK>M-27E5-IgG). The assay is validated for IC50-determination.
Assay plates: 96-well polystyrene plates, streptavidin-coated,
Samples: 10 mM in dimethylsulfoxide (DMSO)
Aurora A-His-4: C-terminally Histidine4 (His4)-tagged Aurora A full-length protein, stock solution 0.7 mg/ml, final conc.: 250 ng/ml
PKB-GSK2: biotinylated peptide derived from human GSK3-alpha sequence (Biotin-SGRARTSSFAEPGG-CONH2), stock solution 600 μM, final conc.: 200 nM
PAK<M-Ig>S-IgG-POD: Anti-mouse IgG, horse radish peroxidase(HRP)-linked Antibody, diluted in 3% BSA/PBS-T (1:10000), (Cell Signaling, Cat. No.: 7076)
MAK<P-GSK>M-27E5-IgG: Phospho-GSK-3-alpha (Ser 21) (27E5) Monoclonal Antibody, stock solution 1.85 mg/ml, diluted in 3% BSA/PBS-T (1:6000), final conc.: 0.31 μg/ml, (Cell Signaling, Cat. No.: 9337B)
ATP: Adenosine-5′-triphosphate 1 mM, diluted in kinase buffer, (Roche Diagnostics GmbH, Cat. No.: 127531-001,), final conc.: 4 μM
TRIS: 2-Amino-2-hydroxymethyl-1,3-propoanediol (“tris-(hydroxymethyl)-aminomethane”) (MERCK, Cat. No.: 108382.2500)
BSA: Bovine Serum Albumin Fraction V, fatty acid free (Roche Diagnostics GmbH, Cat. No. 9100221)
EDTA Titriplex III (di-Sodium-EDTA di-Hydrate), 120 mM, (MERCK, Cat. No.: 1.08418.1000)
ABTS buffer: ABTS (2,2′-azino-bis(3-ethylbenzthiazoline-6-sulfonic acid)) 16.7 mg/ml (Roche Diagnostics GmbH, Cat. No.: 1204530) • ABTS tablets: dissolve one ABTS tablet in 50 ml of working solution (ABTS buffer) (Roche Diagnostics GmbH, Cat. No.: 1112422 ) • Tween 20: Polysorbat 20 (Roche Diagnostics GmbH, Cat. No.: 10006394-001) • DTT: 1,4-Dithiothreitol (Roche Diagnostics GmbH, Cat. No.: 197777) • MgCl2×6H2O MERCK, Cat. No.: 105833.1000 • Kinase buffer: 50 mM TRIS, 10 mM MgCl2, 1 mM DTT, 0.1% Tween 20, pH 7.8 PBS-T (=Wash buffer) (PBS-T)10 g/l PBS(Phosphate buffered saline) with 0.033% Tween 20 • 3% BSA/PBS-T: 3% BSA dissolved in PBS-T Method
This assay is performed in 96-well format for IC50 determination with 5 samples (each with 8 concentrations by twofold testing), 100 μl incubation volume and the following plate layout:
S samples, with ATP, 1% DMSO, final conc.: a=100 μM, b=20 μM, c=4 μM, d=0.8 μM, e=0.16 μM, f=0.032 μM, g=0.0064 μM, h=0.00128 μM Step/Action • (1) Sample preparation: add 24 μl per well samples (descending sequence) diluted in kinase buffer to assay plate (final conc. for DMSO 1%). • 2. Add directly 16 μl Aurora-A-his-4 diluted in kinase buffer to assay plate. • 3. Add directly 40 μl per well PKB-GSK2/ATP mixture to assay plate, (final conc.: Aurora A=250 ng/ml, GSK2=200 nM, ATP=4 μM). Negative control: without ATP. • 4. Incubate assay plate for exactly 90 min at room temperature. • 5. Stop reaction by adding 20 μl EDTA in all wells. • 6. Wash assay plate 3× with 200 μl washing buffer per well. • 7. Add 100 μl MAK<P-GSK>M27E5-IgG (1:10000) and PAK<M-Ig>S-IgG-POD (1:6000) dissolved in 3% BSA/PBS-T to assay plate per well. • 8. Incubate assay plate for 60 min at room temperature. • 9. Wash assay plate 3× with 200 μl washing buffer per well • 10. Add 100 μl ABTS solution to assay plate per well, incubate for approx. 4 min at RT on MTP shaker. • 11. Measure absorption at 405/492 nm. • 12. Calculate % inhibition as: (1−(Esample−ENC)/(EPC−ENC))×100 1)
13. Calculate IC50 using a non-linear curve fit (XLfit software (ID Business Solution Ltd., Guilford, Surrey, UK))
In general terms: ELISA stands for enzyme-linked immunosorbent assay.

The subject of test [2] is HCT 116 cells. Nature of the test: Viability assay HCT 116 cells (CellTiter-Glo). Particulars: Homo sapiens, HCT-116, 120 h, HCT 116 human colon carcinoma cells, 5 days incubation, CellTiter-Glo luminescence. The test is classed as cell-based. The procedure:
Viability Assay—HCT 116 Cells
A viability assay was performed using the CellTiter-Glo® Luminescent Cell Viability Assay (see Promega Corporation's Technical Bulletin No. 288, pp. 1-11 [revised 2/04] which is hereby incorporated by reference in its entirety). This assay is a homogeneous method of determining the number of viable cells in culture based on quantitation of the ATP present, an indicator of metabolically active cells. The assay is designed for use with multiwell formats, making it ideal for automated high-throughput screening (HTS), cell proliferation and cytotoxicity assays. The homogeneous assay procedure involves adding a single reagent (containing luciferase, luciferan substrate, and buffer) directly to cells cultured in serum-supplemented medium. Cell washing, removal of medium and multiple pipetting steps are not required. The system detects as few as 15 cells/well in a 384-well format in 10 minutes after adding reagent and mixing.
The homogeneous “add-mix-measure” format results in cell lysis and generation of a luminescent signal proportional to the amount of ATP present. The amount of ATP is directly proportional to the number of cells present in culture. The above-referenced assay generates a “glow-type” luminescent signal, produced by the luciferase reaction, which has a half-life generally greater than five hours, depending on cell type and medium used. The extended half-life eliminates the need to use reagent injectors and provides flexibility for continuous or batch mode processing of multiple plates. The unique homogeneous format avoids errors that may be introduced by other ATP measurement methods that require multiple steps.
HCT 116 cells (human colon carcinoma, ATCC-No. CCl-247) were cultivated in RPMI 1640 medium with GlutaMAX™ I (cell culture media that contains L-Alanyl-L-Glutamine [a stabilized a form/source of L-Glutamine] from Invitrogen, Cat-No. 61870-010), 2.5% Fetal Calf Serum (FCS, Sigma Cat-No. F4135 (FBS)); 100 Units/ml penicillin/100 μg/ml streptomycin (=Pen/Strep from Invitrogen Cat. No. 15140). For the assay the cells were seeded in 384 well plates, 1000 cells per well, in the same medium. The next day the test compounds were added in various concentrations ranging from 30 μM to 0.0015 μM (10 concentrations, 1:3 diluted). After 5 days the viability assay was done according to the instructions of the manufacturer. In brief: the cell-plate was equilibrated to room temperature for approximately 30 minutes and than the reagent (containing luciferase, luciferan substrate, and buffer) was added. The contents were carefully mixed for 15 minutes to induce cell lysis. After 45 minutes the luminescent signal was measured in Victor 2, (scanning multiwell spectrophotometer, Wallac).
Medium: RPMI 1640 with cell culture media containing L-Alanyl-L-Glutamine [GlutaMAX™ I (Invitrogen, Cat-Nr. 61870)], 5% FCS (Sigma Cat.-No. F4135), Pen/Strep (Invitrogen, Cat No. 15140). • HCT116 (ATCC-No. CCl-247): 1000 cells in 60 μl per well of 384 well plate (Greiner 781098, μClear-plate white) • After seeding incubate plates 24 h at 37° C., 5% CO2 2nd. Day: Induction (Treatment with Compounds, 10 Concentrations):
In order to achieve a final concentration of 30 μM as highest concentration […] of 10 mM compound stock solution were added directly to 163 μl media. Then step e) of the dilution procedure described below, was followed.
For orientation: In ATP-based viability assays light output follows the ATP content of the culture.

A word on the IC50: it is the concentration needed to halve the response being measured. Turning to `CC1(C)C(=O)N(CC(O)CN2CCOCC2)c2cc3[nH]c(-c4n[nH]c5ccccc45)nc3cc21` (centres unmarked) [Example 29, 5-(2-Hydroxy-3-morpholin-4-yl-propyl)-2-(1H-indazol-3-yl)-7,7-dimethyl-5,7-dihydro-3H-imidazo[4,5-f]indol-6-one], the IC50 in test [1] was 1 to 100 nM.

In the case of `CC1(C)C(=O)N(Cc2cccnc2)c2cc3[nH]c(-c4n[nH]c5ccccc45)nc3cc21` [Example 16, 2-(1H-Indazol-3-yl)-7,7-dimethyl-5-pyridin-3-ylmethyl-5,7-dihydro-3H-imidazo[4,5-f]indol-6-one], the IC50 in test [1] was 1 to 100 nM.

In the case of `CC1(C)C(=O)N(CC(=O)NCC(O)CO)c2cc3[nH]c(-c4n[nH]c5ccccc45)nc3cc21` (centres unmarked) [Example 48, N-(2,3-Dihydroxy-propyl)-2-[2-(1H-indazol-3-yl)-7,7-dimethyl-6-oxo-6,7-dihydro-3H-imidazo[4,5-f]indol-5-yl]-acetamide], the concentration for half-maximal inhibition (IC50) in test [1] lay in the range of 1 to 100 nM.

For the compound `CC1(C)CC(=O)Nc2cc3nc(-c4n[nH]c5ccccc45)[nH]c3cc21` [Example 10, 2-(1H-Indazol-3-yl)-8,8-dimethyl-1,5,7,8-tetrahydro-imidazo[4,5-g]quinolin-6-one], the IC50 in test [1] was 100 to 250 nM.

In turn, `CN1CCN(C(=O)NCCN2C(=O)C(C)(C)c3cc4nc(-c5n[nH]c6ccccc56)[nH]c4cc32)CC1` [Example 59, 4-Methyl-piperazine-1-carboxylic acid {2-[2-(1H-indazol-3-yl)-7,7-dimethyl-6-oxo-6,7-dihydro-3H-imidazo[4,5-f]indol-5-yl]-ethyl}-amide] showed a concentration for half-maximal inhibition (IC50) in test [2] of 1000 to 10000 nM.

In test [2], `CCN1C(=O)C(C)(C)c2cc3[nH]c(-c4n[nH]c5ccc(NS(=O)(=O)c6ccccc6[N+](=O)[O-])cc45)nc3cc21` [Example 134, N-[3-(5-Ethyl-7,7-dimethyl-6-oxo-1,5,6,7-tetrahydro-imidazo[4,5-f]indol-2-yl)-1H-indazol-5-yl]-2-nitro-benzenesulfonamide] registered a half-inhibitory concentration (IC50) of 100 to 1000 nM.

In test [2], `CCN1C(=O)C(C)(C)c2cc3nc(-c4n[nH]c5ccc(C(=O)O)cc45)[nH]c3cc21` [Example 69, 3-(5-Ethyl-7,7-dimethyl-6-oxo-3,5,6,7-tetrahydro-imidazo[4,5-f]indol-2-yl)-1H-indazole-5-carboxylic acid] showed an IC50 of 100 to 1000 nM.

Take `CCN(CC)CCN1C(=O)C(C)(C)c2cc3nc(-c4n[nH]c5ccccc45)[nH]c3cc21` [Example 22, 5-(2-Diethylamino-ethyl)-2-(1H-indazol-3-yl)-7,7-dimethyl-5,7-dihydro-3H-imidazo[4,5-f]indol-6-one]: the IC50 in test [2] fell in the range of 100 to 1000 nM.

In the case of `CC1(C)C(=O)N(Cc2nccs2)c2cc3[nH]c(-c4n[nH]c5ccccc45)nc3cc21` [Example 32, 2-(1H-Indazol-3-yl)-7,7-dimethyl-5-thiazol-2-ylmethyl-5,7-dihydro-3H-imidazo[4,5-f]indol-6-one], the 50% inhibitory concentration (IC50) in test [2] is 240 nM.

`CC(C)N1C(=O)C(C)(C)c2cc3[nH]c(-c4n[nH]c5ccc(NS(=O)(=O)c6ccccc6S(C)(=O)=O)cc45)nc3cc21` [Example 143, N-[3-(5-Isopropyl-7,7-dimethyl-6-oxo-1,5,6,7-tetrahydro-imidazo[4,5-f]indol-2-yl)-1H-indazol-5-yl]-2-methanesulfonyl-benzenesulfonamide]: the IC50 in test [2] was in the range of 100 to 1000 nM.

Consider `CCN1C(=O)C(C)(C)c2cc3nc(-c4n[nH]c5ccc(NS(=O)(=O)c6cc(F)ccc6F)cc45)[nH]c3cc21` [Example 141, N-[3-(5-Ethyl-7,7-dimethyl-6-oxo-3,5,6,7-tetrahydro-imidazo[4,5-f]indol-2-yl)-1H-indazol-5-yl]-2,5-difluoro-benzenesulfonamide], for which the 50% inhibitory concentration (IC50) in test [2] was 100 to 1000 nM.
